One block for each molecule: values may come before it.
Legend:
[1] = target: T1, Ubiquitin carboxyl-terminal hydrolase 7 (Homo sapiens, UniProt Q93009); assay: Inhibition of human USP7 using ubiquitin-Rho as substrate incubated for 1 hrs
[2] = target: T2, Ubiquitin carboxyl-terminal hydrolase 8 (Homo sapiens, UniProt P40818); assay: Inhibition of USP8 (unknown origin)
T2 sequence (P40818 whole entry): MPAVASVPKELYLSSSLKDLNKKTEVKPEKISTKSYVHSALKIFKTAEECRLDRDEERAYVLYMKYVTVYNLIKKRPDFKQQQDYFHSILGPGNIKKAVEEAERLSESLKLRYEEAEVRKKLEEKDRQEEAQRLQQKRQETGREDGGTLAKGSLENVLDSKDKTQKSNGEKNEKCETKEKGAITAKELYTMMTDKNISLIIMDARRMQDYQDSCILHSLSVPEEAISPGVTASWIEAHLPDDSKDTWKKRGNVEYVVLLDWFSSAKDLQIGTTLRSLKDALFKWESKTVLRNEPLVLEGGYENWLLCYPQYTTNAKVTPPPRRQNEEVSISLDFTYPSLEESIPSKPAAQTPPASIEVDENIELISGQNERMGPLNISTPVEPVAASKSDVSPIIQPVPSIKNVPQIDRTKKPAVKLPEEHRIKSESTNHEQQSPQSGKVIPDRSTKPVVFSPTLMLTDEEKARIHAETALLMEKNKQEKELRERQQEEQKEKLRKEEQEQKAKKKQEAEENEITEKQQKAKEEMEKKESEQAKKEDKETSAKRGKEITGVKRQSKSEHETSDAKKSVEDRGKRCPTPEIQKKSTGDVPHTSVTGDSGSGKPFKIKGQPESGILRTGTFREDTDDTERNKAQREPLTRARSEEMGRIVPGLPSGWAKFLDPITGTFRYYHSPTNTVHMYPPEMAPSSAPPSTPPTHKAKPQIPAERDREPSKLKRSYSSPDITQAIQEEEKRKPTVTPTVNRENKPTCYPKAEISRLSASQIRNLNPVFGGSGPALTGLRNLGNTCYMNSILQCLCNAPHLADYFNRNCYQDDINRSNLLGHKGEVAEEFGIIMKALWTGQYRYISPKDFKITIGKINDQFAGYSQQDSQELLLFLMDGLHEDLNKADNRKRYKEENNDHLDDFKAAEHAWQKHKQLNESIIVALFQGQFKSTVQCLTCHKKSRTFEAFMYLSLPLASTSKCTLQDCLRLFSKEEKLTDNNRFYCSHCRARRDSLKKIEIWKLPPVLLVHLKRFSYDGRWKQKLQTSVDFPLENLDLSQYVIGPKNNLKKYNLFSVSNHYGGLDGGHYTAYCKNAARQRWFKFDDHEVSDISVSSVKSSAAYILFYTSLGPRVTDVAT

[3] = target: T1, Ubiquitin carboxyl-terminal hydrolase 7; assay: Inhibition of human USP7 using Ub-AMC as substrate
[4] = target: T3, Ubiquitin carboxyl-terminal hydrolase 47 (Homo sapiens, UniProt Q96K76); assay: Inhibition of USP47 (unknown origin)
T3 sequence (Q96K76 whole entry): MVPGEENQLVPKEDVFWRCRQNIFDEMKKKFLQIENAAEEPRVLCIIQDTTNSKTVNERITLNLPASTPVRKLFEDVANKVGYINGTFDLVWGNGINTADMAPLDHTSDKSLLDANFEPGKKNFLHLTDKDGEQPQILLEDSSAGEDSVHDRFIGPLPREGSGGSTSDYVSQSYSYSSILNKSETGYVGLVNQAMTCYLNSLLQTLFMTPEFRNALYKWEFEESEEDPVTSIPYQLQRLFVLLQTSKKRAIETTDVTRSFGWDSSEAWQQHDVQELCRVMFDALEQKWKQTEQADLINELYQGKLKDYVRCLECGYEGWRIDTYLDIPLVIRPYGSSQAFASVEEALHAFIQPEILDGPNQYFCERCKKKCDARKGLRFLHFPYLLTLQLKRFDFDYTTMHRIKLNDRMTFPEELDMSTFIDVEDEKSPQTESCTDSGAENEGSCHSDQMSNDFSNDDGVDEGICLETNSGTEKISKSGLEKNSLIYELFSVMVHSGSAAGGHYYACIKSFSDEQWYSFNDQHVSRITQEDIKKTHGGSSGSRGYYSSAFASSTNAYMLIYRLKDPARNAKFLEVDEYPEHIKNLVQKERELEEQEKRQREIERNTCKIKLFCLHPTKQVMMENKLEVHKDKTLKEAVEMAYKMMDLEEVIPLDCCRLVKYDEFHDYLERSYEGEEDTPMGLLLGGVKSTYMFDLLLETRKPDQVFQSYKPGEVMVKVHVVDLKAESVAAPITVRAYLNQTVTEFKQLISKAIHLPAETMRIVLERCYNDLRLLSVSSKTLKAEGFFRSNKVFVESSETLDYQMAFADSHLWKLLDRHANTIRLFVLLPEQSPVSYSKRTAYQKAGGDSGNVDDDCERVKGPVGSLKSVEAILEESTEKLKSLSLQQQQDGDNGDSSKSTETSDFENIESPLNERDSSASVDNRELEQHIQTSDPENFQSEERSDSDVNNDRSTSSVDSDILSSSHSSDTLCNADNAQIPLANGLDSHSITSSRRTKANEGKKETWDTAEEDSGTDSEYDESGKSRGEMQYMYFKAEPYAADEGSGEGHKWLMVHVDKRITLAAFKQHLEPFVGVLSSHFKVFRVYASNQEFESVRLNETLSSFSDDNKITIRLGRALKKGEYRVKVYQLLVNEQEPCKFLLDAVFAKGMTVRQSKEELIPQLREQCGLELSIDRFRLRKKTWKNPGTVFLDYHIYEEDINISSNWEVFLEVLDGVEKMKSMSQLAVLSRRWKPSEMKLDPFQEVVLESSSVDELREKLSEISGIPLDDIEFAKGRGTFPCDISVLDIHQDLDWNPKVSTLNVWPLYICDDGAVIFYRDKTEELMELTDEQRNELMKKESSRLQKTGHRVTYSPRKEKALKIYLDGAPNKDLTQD

[5] = target: T1, Ubiquitin carboxyl-terminal hydrolase 7; assay: Inhibition of USP7 (unknown origin)
[6] = target: T4, Ubiquitin carboxyl-terminal hydrolase 2 (Homo sapiens) (UniProt O75604); assay: Inhibition of human USP2 (258 to 605 residues) catalytic domain assessed as inhibition constant by fluorescence based assay
T4 sequence (whole entry): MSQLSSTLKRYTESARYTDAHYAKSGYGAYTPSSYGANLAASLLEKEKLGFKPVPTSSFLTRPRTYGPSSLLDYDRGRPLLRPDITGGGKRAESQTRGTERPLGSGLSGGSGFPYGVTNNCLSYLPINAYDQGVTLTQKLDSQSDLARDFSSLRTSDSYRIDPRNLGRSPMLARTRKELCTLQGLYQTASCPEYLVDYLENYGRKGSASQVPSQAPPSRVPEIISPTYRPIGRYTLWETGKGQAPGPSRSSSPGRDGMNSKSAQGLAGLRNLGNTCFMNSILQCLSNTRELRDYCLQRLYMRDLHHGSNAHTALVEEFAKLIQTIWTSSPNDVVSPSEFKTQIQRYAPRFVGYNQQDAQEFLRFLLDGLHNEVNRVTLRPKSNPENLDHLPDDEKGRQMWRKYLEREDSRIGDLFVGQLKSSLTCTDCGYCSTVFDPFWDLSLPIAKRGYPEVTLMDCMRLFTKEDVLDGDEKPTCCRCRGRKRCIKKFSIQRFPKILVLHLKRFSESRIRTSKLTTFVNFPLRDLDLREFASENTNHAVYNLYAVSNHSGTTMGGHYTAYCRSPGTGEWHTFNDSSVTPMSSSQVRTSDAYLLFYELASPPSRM

[7] = target: T2, Ubiquitin carboxyl-terminal hydrolase 8; assay: Inhibition of human USP8 using Ub-AMC as substrate
[8] = target: T5, Ubiquitin carboxyl-terminal hydrolase 28 (Homo sapiens, UniProt Q96RU2); assay: Inhibition of USP28 (unknown origin) using […] as substrate by […] analysis
T5 sequence (Q96RU2 whole entry): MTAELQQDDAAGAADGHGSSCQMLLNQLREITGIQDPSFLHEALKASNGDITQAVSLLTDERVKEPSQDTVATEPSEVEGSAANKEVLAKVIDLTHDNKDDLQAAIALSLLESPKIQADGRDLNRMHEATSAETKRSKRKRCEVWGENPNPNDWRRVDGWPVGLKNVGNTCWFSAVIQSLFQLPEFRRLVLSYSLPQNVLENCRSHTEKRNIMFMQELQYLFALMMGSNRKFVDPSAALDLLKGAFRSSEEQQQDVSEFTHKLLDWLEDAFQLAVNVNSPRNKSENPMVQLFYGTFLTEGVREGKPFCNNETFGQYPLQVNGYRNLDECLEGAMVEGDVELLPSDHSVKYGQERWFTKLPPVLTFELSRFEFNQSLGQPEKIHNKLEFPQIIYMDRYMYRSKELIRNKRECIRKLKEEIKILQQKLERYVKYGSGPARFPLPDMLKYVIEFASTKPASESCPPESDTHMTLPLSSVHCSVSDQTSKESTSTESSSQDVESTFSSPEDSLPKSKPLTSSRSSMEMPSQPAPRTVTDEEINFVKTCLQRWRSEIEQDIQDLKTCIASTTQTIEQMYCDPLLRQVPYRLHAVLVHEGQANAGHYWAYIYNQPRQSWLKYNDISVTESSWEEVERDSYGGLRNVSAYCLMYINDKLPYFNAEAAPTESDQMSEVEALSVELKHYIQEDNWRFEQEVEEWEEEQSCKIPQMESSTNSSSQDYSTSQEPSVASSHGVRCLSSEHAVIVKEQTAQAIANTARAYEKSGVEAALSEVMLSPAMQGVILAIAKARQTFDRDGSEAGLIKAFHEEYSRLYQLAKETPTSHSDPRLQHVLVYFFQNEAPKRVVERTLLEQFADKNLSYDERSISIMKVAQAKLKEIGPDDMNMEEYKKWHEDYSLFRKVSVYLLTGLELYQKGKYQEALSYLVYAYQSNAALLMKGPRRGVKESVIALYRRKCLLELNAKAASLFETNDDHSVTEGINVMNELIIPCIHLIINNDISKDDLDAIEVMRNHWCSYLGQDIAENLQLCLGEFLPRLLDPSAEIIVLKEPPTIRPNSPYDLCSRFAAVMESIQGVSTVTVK

[9] = target: T6, Ubiquitin carboxyl-terminal hydrolase 25 (Homo sapiens, UniProt Q9UHP3); assay: Inhibition of USP25 (unknown origin) using […] as substrate by […] analysis
T6 sequence (Q9UHP3 whole entry): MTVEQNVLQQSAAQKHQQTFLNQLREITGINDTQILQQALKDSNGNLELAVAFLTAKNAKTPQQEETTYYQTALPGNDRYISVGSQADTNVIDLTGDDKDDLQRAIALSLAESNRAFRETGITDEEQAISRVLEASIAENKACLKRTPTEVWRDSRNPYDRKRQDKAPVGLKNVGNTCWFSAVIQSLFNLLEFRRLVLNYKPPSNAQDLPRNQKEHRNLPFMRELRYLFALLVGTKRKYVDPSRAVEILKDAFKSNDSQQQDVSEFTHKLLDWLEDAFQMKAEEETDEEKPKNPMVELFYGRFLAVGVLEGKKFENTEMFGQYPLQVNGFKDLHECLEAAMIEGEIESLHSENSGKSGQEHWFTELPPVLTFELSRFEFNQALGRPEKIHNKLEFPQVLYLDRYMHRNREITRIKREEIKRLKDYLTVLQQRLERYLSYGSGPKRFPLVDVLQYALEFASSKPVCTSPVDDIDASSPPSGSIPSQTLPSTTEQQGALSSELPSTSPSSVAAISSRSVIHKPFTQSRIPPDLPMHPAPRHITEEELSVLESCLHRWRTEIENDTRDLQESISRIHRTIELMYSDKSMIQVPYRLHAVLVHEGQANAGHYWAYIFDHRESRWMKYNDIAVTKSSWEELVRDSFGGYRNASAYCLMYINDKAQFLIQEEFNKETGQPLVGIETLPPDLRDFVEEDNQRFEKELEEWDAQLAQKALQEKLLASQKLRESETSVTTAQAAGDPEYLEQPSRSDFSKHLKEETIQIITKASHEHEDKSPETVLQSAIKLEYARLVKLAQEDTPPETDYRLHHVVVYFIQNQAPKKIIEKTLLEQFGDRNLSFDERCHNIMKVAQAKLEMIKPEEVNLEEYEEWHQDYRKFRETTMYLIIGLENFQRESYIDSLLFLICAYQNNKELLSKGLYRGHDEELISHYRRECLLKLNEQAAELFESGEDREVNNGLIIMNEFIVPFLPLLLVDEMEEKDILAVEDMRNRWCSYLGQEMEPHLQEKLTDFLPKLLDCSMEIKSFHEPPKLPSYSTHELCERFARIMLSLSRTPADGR

[10] = target: T1, Ubiquitin carboxyl-terminal hydrolase 7; assay: Inhibition of human USP7 using ubiquitin-Rho110 as substrate incubated for 1 hrs
[11] = target: T7, Ubiquitin carboxyl-terminal hydrolase 2 (Homo sapiens, UniProt O75604); assay: Inhibition of human USP2 (258 to 605 residues) catalytic domain by fluorescence based assay
T7 sequence (O75604 whole entry): T4 sequence (whole entry)

T1 sequence (Q93009 whole entry): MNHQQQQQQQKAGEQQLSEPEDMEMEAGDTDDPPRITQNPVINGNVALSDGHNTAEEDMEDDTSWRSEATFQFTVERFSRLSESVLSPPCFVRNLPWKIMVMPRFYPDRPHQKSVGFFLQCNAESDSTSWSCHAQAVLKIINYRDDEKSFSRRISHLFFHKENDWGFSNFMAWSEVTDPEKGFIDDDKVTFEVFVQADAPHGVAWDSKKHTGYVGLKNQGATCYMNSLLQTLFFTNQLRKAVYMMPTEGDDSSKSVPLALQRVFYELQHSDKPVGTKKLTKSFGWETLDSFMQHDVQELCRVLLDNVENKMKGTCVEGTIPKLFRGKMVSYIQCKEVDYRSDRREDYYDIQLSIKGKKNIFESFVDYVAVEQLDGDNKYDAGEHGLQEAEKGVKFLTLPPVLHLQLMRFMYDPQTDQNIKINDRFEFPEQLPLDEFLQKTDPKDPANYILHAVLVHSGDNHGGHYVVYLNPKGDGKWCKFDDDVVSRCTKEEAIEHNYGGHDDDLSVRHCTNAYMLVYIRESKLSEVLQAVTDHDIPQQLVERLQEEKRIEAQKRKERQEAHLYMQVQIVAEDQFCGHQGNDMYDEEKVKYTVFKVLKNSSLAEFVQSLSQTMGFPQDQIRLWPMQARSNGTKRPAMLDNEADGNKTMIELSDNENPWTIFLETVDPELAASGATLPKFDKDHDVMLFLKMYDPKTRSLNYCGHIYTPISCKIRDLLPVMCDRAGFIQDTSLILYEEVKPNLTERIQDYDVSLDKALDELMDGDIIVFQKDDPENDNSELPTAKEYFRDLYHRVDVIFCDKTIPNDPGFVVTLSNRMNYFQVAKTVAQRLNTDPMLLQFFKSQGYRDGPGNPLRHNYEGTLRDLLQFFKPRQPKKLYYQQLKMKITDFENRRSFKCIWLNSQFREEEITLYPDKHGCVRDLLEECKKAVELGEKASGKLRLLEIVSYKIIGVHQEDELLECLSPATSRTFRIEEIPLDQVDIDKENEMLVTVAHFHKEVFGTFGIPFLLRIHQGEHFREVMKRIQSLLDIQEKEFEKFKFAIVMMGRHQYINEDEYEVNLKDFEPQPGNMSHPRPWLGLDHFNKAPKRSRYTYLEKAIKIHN

IC50 [1]: 75.6 µM
Structure (SMILES): CCc1c(-c2ccc(C(=O)N(C)C)cc2)cnc(N)c1-c1ccc(O)cc1

IC50 [2]: 0.96 µM
IC50 [3]: 0.4 µM
IC50 [4]: 0.4 µM
Structure (SMILES): N#Cc1nc2c(nc1C#N)-c1ccc(Cl)cc1C2=O

IC50 [5]: 2 µM
Structure (SMILES): CC(=O)c1cc([N+](=O)[O-])c(Sc2c(Cl)cncc2Cl)s1

Kis [6]: 24.6 µM
Structure (SMILES): Nc1nc2[nH]cnc2c(=S)[nH]1

IC50 [3]: 2.55 µM
IC50 [7]: 0.133 µM
Structure (SMILES): N#Cc1nc2c(nc1C#N)-c1cc(Cl)ccc1C2=O

IC50 [1]: > 63.3 µM
Structure (SMILES): CCc1c(-c2ccc(O)cc2)cnc(N)c1-c1ccc(S(C)(=O)=O)cc1

IC50 [3]: > 100 µM
IC50 [7]: > 100 µM
Structure (SMILES): CCOc1nc2c(nc1C#N)C(=O)c1ccccc1-2

IC50 [1]: > 63.3 µM
Structure (SMILES): CCc1c(-c2ccc(O)cc2)cnc(N)c1-c1cccc(C)c1

IC50 [8]: 59.6 µM
IC50 [9]: 52.5 µM
Structure (SMILES): OCCNCc1cc(Br)ccc1OCc1ccccc1

IC50 [8]: 1.1 µM
IC50 [9]: 0.88 µM
Structure (SMILES): OCCNCc1cc(Br)ccc1OCc1cccc(OC(F)(F)F)c1

IC50 [10]: 42 µM
Structure (SMILES): CC(=O)Nc1cccc(-c2cnc(N)c(-c3ccc(O)cc3)c2C)c1

IC50 [10]: > 63.3 µM
Structure (SMILES): CCc1c(-c2cccc(NC(C)=O)c2)cnc(N)c1-c1cccs1

IC50 [11]: 42 µM
Structure (SMILES): Nc1nc2nc[nH]c2c(=S)[nH]1 [THIOGUANINE]

IC50 [8]: 2 µM
Structure (SMILES): OCCNCc1cc(Br)ccc1OCc1cc(F)c(F)cc1F

IC50 [2]: > 100 µM
IC50 [4]: > 100 µM
Structure (SMILES): CO/C(O)=C(\C#N)c1nc2c(nc1C#N)C(=O)c1ccccc1-2

IC50 [3]: > 100 µM
IC50 [7]: > 100 µM
Structure (SMILES): CCO/C(O)=C(\C#N)c1nc2c(nc1C#N)C(=O)c1ccccc1-2

IC50 [11]: > 100 µM
Structure (SMILES): Sc1ncnc2nc[nH]c12 [MERCAPTOPURINE ANHYDROUS]
